From patent publication US20240148821A1, “PHARMACEUTICAL USE OF CYCLIC PEPTIDE COMPOUND” (CHUGAI SEIYAKU KABUSHIKI KAISHA, priority 2021, published 2024)
Numbered stars: 1 amine (or outer) side, 2 acyl side, 3 side chain; on linkers, the order of the positions; unused ones are H or OH. Bridge positions count the residues as written; N and C are the ends. Square brackets hold non-standard residues; d marks the D form. Peptide text beside a SMILES is read from it. * marks the point of attachment. hPhe(3-Cl-4-CF3) = N[C@@H](CCc1ccc(C(F)(F)F)c(Cl)c1)C(=O)O; NMeAbu(4,4,4-F3) = CN[C@@H](CC(F)(F)F)C(=O)O; NMePhe(4-F) = CN[C@@H](Cc1ccc(F)cc1)C(=O)O; NMedβ3hAla = C[C@H](CC(=O)[*:2])N(C)[*:1]; NMe3Pal = CN[C@@H](Cc1cccnc1)C(=O)O; NMeCha = CN[C@@H](CC1CCCCC1)C(=O)O; NMeGly(cPr) = CN[C@H](C(=O)O)C1CC1; NMeAhp(2) = CCCCC[C@H](NC)C(=O)O; NMeChg = CN[C@H](C(=O)O)C1CCCCC1; NMeF = CN[C@@H](Cc1ccccc1)C(=O)O; NMeI = CC[C@H](C)[C@H](NC)C(=O)O; NMeD = CN[C@@H](CC(=O)O)C(=O)O; NMeL = CN[C@@H](CC(C)C)C(=O)O; hLeu = CC(C)CC[C@H](N)C(=O)O; NMeV = CN[C@H](C(=O)O)C(C)C; d(β3hA) = C[C@@H](N)CC(=O)O; NMeAbu = CC[C@H](NC)C(=O)O; NMeS = CN[C@@H](CO)C(=O)O; Ac6c = NC1(C(=O)O)CCCCC1; Morpholide = C1CN(*)CCO1; NMeA = CN[C@@H](C)C(=O)O; Nphe = O=C(O)CNCc1ccccc1; Piperidide = C1CCN(*)CC1; dNMeA = CN[C@H](C)C(=O)O; Ac5c = NC1(C(=O)O)CCCC1; Aze = O=C(O)[C@@H]1CCN1; Ac3c = NC1(C(=O)O)CC1; Cyclopropyl = C1CC1*; Sar = CNCC(=O)O

How the values were obtained:
[1] = molecular target: protein-protein interaction between Kras and SOS1 (biotin-tagged human Kras loaded with GDP, His-tagged human SOS1) (Homo sapiens (Human), UniProt P01116, G12D); assay: Protein-protein interaction inhibition between Kras and SOS1 (KrasG12D-SOS PPI) using AlphaScreen; format: biochemical; settings: AlphaScreen; biotin-tagged human Kras loaded with GDP, His-tagged human SOS1; read-out: KRAS G12D-SOS PPI IC50;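 also: kras produced in E. coli, Ni-coupled donor beads and streptavidin acceptor beads, excitation 680 nm with emission detected at 520–620 nm via singlet oxygen transfer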
[2] = system: Human pancreatic cancer cell line AsPC-1 (G12D mutation Kras); assay: AsPC-1 cell growth inhibition (AsPC-1 CGI); format: cell-based; settings: read-out: AsPC-1 cell growth inhibition, 50% growth inhibitory concentration (IC50 value); 96 hours, CellTiter-Glo, values classified in ranges
Description: Test compounds were serially dilated with dimethyl sulfoxide, and 200 nL was then dispensed to a U-bottom 96-well plate using Labcyte Echo. […] The cell suspension was dispensed to a. plate containing a test compound at 100 μL per well and incubated at 37° C. in a 5% carbon dioxide gas incubator. 96 hours later, 80 μL of CellTiter-Glo (Promega) was added to each well and fluorescence was measured.

| Structure (SMILES) | IC50 [1] [nM] | IC50 [2] [nM] |
| --- | --- | --- |
| CC[C@H](C)[C@@H]1NC(=O)[C@H](C)N(C)C(=O)C[C@@H](C(=O)N2CCOCC2)N(C)C(=O)[C@H](C(C)C)N(C)C(=O)C2(CCCC2)NC(=O)[C@@H]2CCCN2C(=O)[C@H](CCc2ccc(C(F)(F)F)c(Cl)c2)NC(=O)[C@@H](C)N(C)C(=O)[C@H](CC2CCCCC2)N(C)C(=O)[C@@H]2CCN2C(=O)[C@H](C)N(C)C1=O [Compound 1664] ([NMeA]I[NMeA][Aze][NMeCha][dNMeA][hPhe(3-Cl-4-CF3)]P[Ac5c][NMeV][NMeD]-Morpholide; lactam N-11) | 8.8 | > 500 |
| CC[C@H](C)[C@@H]1NC(=O)[C@H](CC(C)C)N(C)C(=O)C[C@@H](C(=O)N2CCCCC2)N(C)C(=O)[C@H](C(C)C)N(C)C(=O)C2(CCCC2)NC(=O)[C@@H]2CCCN2C(=O)[C@H](CCc2ccc(C(F)(F)F)c(Cl)c2)NC(=O)CN(C)C(=O)[C@H](CC(F)(F)F)N(C)C(=O)[C@@H]2CCN2C(=O)[C@H](C)N(C)C1=O [Compound 1665] ([NMeL]I[NMeA][Aze][NMeAbu(4,4,4-F3)][Sar][hPhe(3-Cl-4-CF3)]P[Ac5c][NMeV][NMeD]-Piperidide; lactam N-11) | 19 | > 500 |
| CC[C@H](C)[C@@H]1NC(=O)[C@H](CC(C)C)N(C)C(=O)C[C@@H](C(=O)N2CCCCC2)N(C)C(=O)[C@H](C(C)C)N(C)C(=O)C2(CCCC2)NC(=O)[C@@H]2CCCN2C(=O)[C@H](CCc2ccc(C(F)(F)F)c(Cl)c2)NC(=O)CN(C)C(=O)[C@H](C)N(C)C(=O)[C@@H]2CCN2C(=O)[C@H](C)N(C)C1=O [Compound 1674] ([NMeL]I[NMeA][Aze][NMeA][Sar][hPhe(3-Cl-4-CF3)]P[Ac5c][NMeV][NMeD]-Piperidide; lactam N-11) | 58 | > 500 |
| CC[C@H](C)[C@@H]1NC(=O)[C@H](C)N(C)C(=O)C[C@@H](C(=O)N2CCCCC2)N(C)C(=O)[C@H](C(C)C)N(C)C(=O)C2(CCCC2)NC(=O)CN(Cc2ccccc2)C(=O)[C@H](CCc2ccc(C(F)(F)F)c(Cl)c2)NC(=O)CN(C)C(=O)[C@H](CC2CCCCC2)N(C)C(=O)CN(C)C(=O)CN(C)C1=O [Compound 1676] ([NMeA]I[Sar][Sar][NMeCha][Sar][hPhe(3-Cl-4-CF3)][Nphe][Ac5c][NMeV][NMeD]-Piperidide; lactam N-11) | 1.6 | > 500 |
| CC[C@H](C)[C@@H]1NC(=O)[C@H](CC(C)C)N(C)C(=O)C[C@@H](C(=O)N2CCCCC2)N(C)C(=O)[C@H](C(C)C)N(C)C(=O)C2(CCCC2)NC(=O)[C@@H]2CCCN2C(=O)[C@H](CCc2ccc(C(F)(F)F)c(Cl)c2)NC(=O)CN(C)C(=O)[C@H](C2CC2)N(C)C(=O)[C@@H]2CCN2C(=O)[C@H](C)N(C)C1=O [Compound 1677] ([NMeL]I[NMeA][Aze][NMeGly(cPr)][Sar][hPhe(3-Cl-4-CF3)]P[Ac5c][NMeV][NMeD]-Piperidide; lactam N-11) | 8.6 | > 500 |
| CC[C@H](C)[C@@H]1NC(=O)[C@H](CC(C)C)N(C)C(=O)C[C@@H](C(=O)N2CCCCC2)N(C)C(=O)[C@H](CC)N(C)C(=O)C2(CCCC2)NC(=O)[C@@H]2CCCN2C(=O)[C@H](CCc2ccc(C(F)(F)F)c(Cl)c2)NC(=O)CN(C)C(=O)[C@H](CC2CCCCC2)N(C)C(=O)[C@@H]2CCN2C(=O)[C@H](C)N(C)C1=O [Compound 1678] ([NMeL]I[NMeA][Aze][NMeCha][Sar][hPhe(3-Cl-4-CF3)]P[Ac5c][NMeAbu][NMeD]-Piperidide; lactam N-11) | 26 | > 500 |
| CC[C@H](C)[C@@H]1NC(=O)[C@H](CC(C)C)N(C)C(=O)C[C@@H](C(=O)N2CCCCC2)N(C)C(=O)[C@H](COC2CC2)N(C)C(=O)C2(CCCC2)NC(=O)[C@@H]2CCCN2C(=O)[C@H](CCc2ccc(C(F)(F)F)c(Cl)c2)NC(=O)CN(C)C(=O)[C@H](CC2CCCCC2)N(C)C(=O)[C@@H]2CCN2C(=O)[C@H](C)N(C)C1=O [Compound 1690] ([NMeL]I[NMeA][Aze][NMeCha][Sar][hPhe(3-Cl-4-CF3)]P[Ac5c][NMeS](Cyclopropyl)[NMeD]-Piperidide; lactam N-11) | 97 | > 500 |
| CC[C@H](C)[C@@H]1NC(=O)[C@H](CC(C)C)N(C)C(=O)C[C@@H](C(=O)N2CCCCC2)N(C)C(=O)[C@H](C(C)C)N(C)C(=O)C2(CC2)NC(=O)[C@@H]2CCCN2C(=O)[C@H](CCc2ccc(C(F)(F)F)c(Cl)c2)NC(=O)CN(C)C(=O)[C@H](CC2CCCCC2)N(C)C(=O)[C@@H]2CCN2C(=O)[C@H](C)N(C)C1=O [Compound 1695] ([NMeL]I[NMeA][Aze][NMeCha][Sar][hPhe(3-Cl-4-CF3)]P[Ac3c][NMeV][NMeD]-Piperidide; lactam N-11) | 8 | > 500 |
| CC(C)CC[C@@H]1NC(=O)[C@H](CC(C)C)N(C)C(=O)C[C@@H](C(=O)N2CCCCC2)N(C)C(=O)[C@H](C(C)C)N(C)C(=O)C2(CCCC2)NC(=O)[C@@H]2CCCN2C(=O)[C@H](CCc2ccc(C(F)(F)F)c(Cl)c2)NC(=O)CN(C)C(=O)[C@H](CC2CCCCC2)N(C)C(=O)[C@@H]2CCN2C(=O)[C@H](C)N(C)C1=O [Compound 1697] ([NMeL][hLeu][NMeA][Aze][NMeCha][Sar][hPhe(3-Cl-4-CF3)]P[Ac5c][NMeV][NMeD]-Piperidide; lactam N-11) | 110 | > 500 |
| CC[C@H](C)[C@@H]1NC(=O)[C@H](C)N(C)C(=O)C[C@@H](C)NC(=O)[C@H](C(C)C)N(C)C(=O)C2(CCCC2)NC(=O)[C@@H]2CCCN2C(=O)[C@H](CCc2ccc(C(F)(F)F)c(Cl)c2)NC(=O)[C@@H](C)N(C)C(=O)[C@H](Cc2ccc(F)cc2)N(C)C(=O)[C@@H]2CCN2C(=O)[C@H](C)N(C)C1=O [Compound 1702] (cyclo([Ac5c][NMeV][d(β3hA)][NMeA]I[NMeA][Aze][NMePhe(4-F)][dNMeA][hPhe(3-Cl-4-CF3)]P)) | 31 | > 500 |
| CC[C@H](C)[C@@H]1NC(=O)[C@H](CC(C)C)N(C)C(=O)C[C@@H](C)NC(=O)[C@H](C2CCCCC2)N(C)C(=O)C2(CCCC2)NC(=O)[C@@H]2CCCN2C(=O)[C@H](CCc2ccc(C(F)(F)F)c(Cl)c2)NC(=O)CN(C)C(=O)[C@H](CC2CCCCC2)N(C)C(=O)[C@@H]2CCN2C(=O)[C@H](C)N(C)C1=O [Compound 1706] (cyclo([Ac5c][NMeChg][d(β3hA)][NMeL]I[NMeA][Aze][NMeCha][Sar][hPhe(3-Cl-4-CF3)]P)) | 140 | > 500 |
| CCCCC[C@H]1C(=O)N(C)[C@H](C(=O)N2CCCCC2)CC(=O)N(C)[C@@H](CC(C)C)C(=O)N[C@@H]([C@@H](C)CC)C(=O)N(C)[C@@H](C)C(=O)N2CC[C@H]2C(=O)N(C)[C@@H](CC2CCCCC2)C(=O)N(C)CC(=O)N[C@@H](CCc2ccc(C(F)(F)F)c(Cl)c2)C(=O)N2CCC[C@H]2C(=O)NC2(CCCC2)C(=O)N1C [Compound 1707] ([NMeL]I[NMeA][Aze][NMeCha][Sar][hPhe(3-Cl-4-CF3)]P[Ac5c][NMeAhp(2)][NMeD]-Piperidide; lactam N-11) | 180 | > 500 |
| CC[C@H](C)[C@@H]1NC(=O)[C@H](CC(C)C)N(C)C(=O)C[C@@H](C(=O)N2CCCCC2)N(C)C(=O)[C@H](C(C)C)N(C)C(=O)C2(CCCCC2)NC(=O)[C@@H]2CCCN2C(=O)[C@H](CCc2ccc(C(F)(F)F)c(Cl)c2)NC(=O)CN(C)C(=O)[C@H](CC2CCCCC2)N(C)C(=O)[C@@H]2CCN2C(=O)[C@H](C)N(C)C1=O [Compound 1708] ([NMeL]I[NMeA][Aze][NMeCha][Sar][hPhe(3-Cl-4-CF3)]P[Ac6c][NMeV][NMeD]-Piperidide; lactam N-11) | 10 | > 500 |
| CC[C@H](C)[C@@H]1NC(=O)[C@H](C)N(C)C(=O)C[C@@H](C(=O)N2CCOCC2)N(C)C(=O)[C@H](C2CCCCC2)N(C)C(=O)C2(CCCC2)NC(=O)[C@H](Cc2cccnc2)N(C)C(=O)[C@H](CCc2ccc(C(F)(F)F)c(Cl)c2)NC(=O)CN(C)C(=O)[C@H](CC2CCCCC2)N(C)C(=O)CN(C)C(=O)CN(C)C1=O [Compound 1718] ([NMeA]I[Sar][Sar][NMeCha][Sar][hPhe(3-Cl-4-CF3)][NMe3Pal][Ac5c][NMeChg][NMeD]-Morpholide; lactam N-11) | 0.8 | > 500 |
| CC[C@H](C)[C@@H]1NC(=O)[C@H](CC(C)C)N(C)C(=O)C[C@@H](C(=O)N2CCCCC2)N(C)C(=O)[C@H](C(C)C)N(C)C(=O)C2(CCCC2)NC(=O)[C@@H]2CCCN2C(=O)[C@H](CCc2ccc(C(F)(F)F)c(Cl)c2)NC(=O)CN(C)C(=O)[C@H](CO)N(C)C(=O)[C@@H]2CCN2C(=O)[C@H](C)N(C)C1=O [Compound 1721] ([NMeL]I[NMeA][Aze][NMeS][Sar][hPhe(3-Cl-4-CF3)]P[Ac5c][NMeV][NMeD]-Piperidide; lactam N-11) | 22 | > 500 |
| CC[C@H](C)[C@@H]1NC(=O)[C@H](C)N(C)C(=O)C[C@@H](C(=O)N2CCCCC2)N(C)C(=O)[C@H](C(C)C)N(C)C(=O)C2(CCCC2)NC(=O)[C@@H]2CCCN2C(=O)[C@H](CCc2ccc(C(F)(F)F)c(Cl)c2)NC(=O)[C@@H](C)N(C)C(=O)[C@H](Cc2ccccc2)N(C)C(=O)[C@@H]2CCN2C(=O)[C@H](C)N(C)C1=O [Compound 1724] ([NMeA]I[NMeA][Aze][NMeF][dNMeA][hPhe(3-Cl-4-CF3)]P[Ac5c][NMeV][NMeD]-Piperidide; lactam N-11) | 16 | > 500 |
| CC[C@H](C)[C@@H]1NC(=O)[C@H](CC(C)C)N(C)C(=O)C[C@@H](C)N(C)C(=O)[C@H]([C@@H](C)CC)N(C)C(=O)C2(CCCC2)NC(=O)[C@@H]2CCCN2C(=O)[C@H](CCc2ccc(C(F)(F)F)c(Cl)c2)NC(=O)CN(C)C(=O)[C@H](CC2CCCCC2)N(C)C(=O)[C@@H]2CCN2C(=O)[C@H](C)N(C)C1=O [Compound 1733] (cyclo([Ac5c][NMeI][NMedβ3hAla][NMeL]I[NMeA][Aze][NMeCha][Sar][hPhe(3-Cl-4-CF3)]P)) | 130 | > 500 |
